Data on 6 compounds can be found in patent publication US20110160594A1 (priority 2008, published 2011).

This assay deals with Pyricularia oryzae. The assay is classed as cell-based. As to conditions: liquid culture, incubation with compound 24-48 h.
For the compound `Fc1ccc([C@]2(Cn3cncn3)O[C@H]2c2ccccc2Cl)cc1` (racemic) [epoxiconazole], the “branch of the dendrogram of IR spectra (FIG. 8)” value (from here on “branch”) was “third branch of the dendrogram”.

Take `CO/C=C(/C(=O)OC)c1ccccc1Oc1cc(Oc2ccccc2C#N)ncn1` [azoxystrobin]: the “branch” value is “clustered together in the second branch”.

With `CCCCC(C#N)(Cn1cncn1)c1ccc(Cl)cc1` (stereo not drawn) [myclobutanil], the “branch” value is reported as “third branch of the dendrogram”.

As to `CNC(=O)/C(=N/OC)c1ccccc1CO/N=C(C)/C(=N/OC)C(/C)=N/OC` [orysastrobin], the “branch” value is “clustered together in the second branch”.

With `COC(=O)N(OC)c1ccccc1COc1ccn(-c2ccc(Cl)cc2)n1` [pyraclostrobin], the “branch” value is “clustered together in the second branch”.

In the case of propioconazole, the “branch” value is “third branch of the dendrogram”.
